Laboratory results: US11345666B2, “Phenyl and pyridinyl substituted imidazoles as modulators of RORγT” (Janssen Pharmaceutica NV, priority 2018, dated 2022)
Marks after values point to notes of the source that are not given here.

Key:
[1] = target: human RORγt ligand binding domain (RORγt LBD) (Homo sapiens (Human), UniProt P51449); assay: RORγt ThermoFluor assay
How it was run: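 Thermal shift of His-tagged human RORγt LBD (0.065 mg/mL) with 60 μM 1,8-ANS in 100 mM Hepes pH 7.0, 10 mM NaCl, 2.5 mM GSH, 0.002% Tween-20, heated at 1° C./min. Compounds in 1:2 series from a 10 mM DMSO stock; KD estimated from ΔTm using protein unfolding thermodynamics.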

full-length human RORγt = full-length human RORγt (Homo sapiens (Human), UniProt P51449); assay: RORγt (full-length human) reporter assay, conditions A or B; type: cell-based; conditions: for IC50: HEK293T cells, read-out: RORγt (FL) Reporter Assay A or B, IC50; for inhibition at 2 µM: 2 μM compound concentration (**); for inhibition at 6 µM: read-out: RORγt (FL) Reporter Assay A or B, % inhibition @ 6 μM, 6 μM compound concentration
How it was run: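 HEK293T cells transiently co-transfected (PEI) with GAL4-DBD–RORγt, GAL4-firefly luciferase and CMV-Renilla reporters; condition A 35,000 cells/well, 170.5 ng DNA/well; condition B 8750 cells/well, 42.6 ng DNA/well.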

[2] = 3 μM compound concentration (*), read-out: RORγt (FL) Reporter Assay A or B, % inhibition
[3] = read-out: RORγt (FL) Reporter Assay A or B, % inhibition

Chain of full-length human RORγt (P51449 other isoform, or with tags, fused parts or gaps): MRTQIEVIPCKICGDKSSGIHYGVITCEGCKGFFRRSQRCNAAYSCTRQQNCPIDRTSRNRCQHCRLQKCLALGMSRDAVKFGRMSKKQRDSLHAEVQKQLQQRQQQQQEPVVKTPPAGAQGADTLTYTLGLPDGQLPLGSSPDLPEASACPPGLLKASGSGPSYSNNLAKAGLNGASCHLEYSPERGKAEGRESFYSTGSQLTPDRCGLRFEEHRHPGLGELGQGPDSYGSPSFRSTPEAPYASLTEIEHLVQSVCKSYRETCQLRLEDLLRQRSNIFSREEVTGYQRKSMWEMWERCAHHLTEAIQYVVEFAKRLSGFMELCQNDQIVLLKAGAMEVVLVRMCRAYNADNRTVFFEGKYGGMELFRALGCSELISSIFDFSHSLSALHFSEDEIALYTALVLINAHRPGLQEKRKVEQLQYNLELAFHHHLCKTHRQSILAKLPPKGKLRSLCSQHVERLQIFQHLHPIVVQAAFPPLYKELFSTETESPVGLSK
Chain of human RORγt ligand binding domain (RORγt LBD) (P51449 other isoform, or with tags, fused parts or gaps): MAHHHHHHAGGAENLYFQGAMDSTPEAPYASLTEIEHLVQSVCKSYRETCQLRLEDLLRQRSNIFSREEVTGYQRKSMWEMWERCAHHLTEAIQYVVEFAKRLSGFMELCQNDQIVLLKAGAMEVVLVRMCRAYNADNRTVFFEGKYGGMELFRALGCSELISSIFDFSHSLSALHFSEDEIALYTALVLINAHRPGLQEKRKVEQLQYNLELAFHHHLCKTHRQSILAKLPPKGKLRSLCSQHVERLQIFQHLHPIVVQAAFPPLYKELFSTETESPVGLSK

Compound | Kd [1] [nM] | inhibition at 3 µM (full-length human RORγt; [2]) [%] | IC50 (full-length human RORγt) [nM] | inhibition at 2 µM (full-length human RORγt; [3]) [%] | inhibition at 6 µM (full-length human RORγt) [%] | inhibition at 0.67 µM (full-length human RORγt; 0.67 μM compound concentration (****), read-out: RORγt (FL) Reporter Assay A or B, % inhibition) [%] | RORγt (FL) Reporter Assay A or B, % inhibition (full-length human RORγt; 3 μM compound concentration (*)) | RORγt (FL) Reporter Assay A or B, % inhibition (full-length human RORγt; 0.67 μM compound concentration (****))
CCc1nc(C(=O)NC[C@H]2CC[C@H](S(C)(=O)=O)CC2)c(Cl)n1-c1ncc(CC(C(F)(F)F)C(F)(F)F)cc1OC(F)F [Example 63, 5-Chloro-1-(3-(difluoromethoxy)-5-(3,3,3-trifluoro-2-(trifluoromethyl)propyl)pyridin-2-yl)-2-ethyl-N-(((1r,4r)-4-(methylsulfonyl)cyclohexyl)methyl)-1H-imidazole-4-carboxamide] | 7.3 | 95 | 47 | – | – | – | – | –
CCc1nc(C(=O)NC[C@]2(O)CC[C@@H](S(C)(=O)=O)CC2)c(C#N)n1-c1ccc(CCC(F)(F)F)cc1OC(F)(F)F [Example 114, 5-Cyano-2-ethyl-N-(((1s,4s)-1-hydroxy-4-(methylsulfonyl)cyclohexyl)methyl)-1-(2-(trifluoromethoxy)-4-(3,3,3-trifluoropropyl)phenyl)-1H-imidazole-4-carboxamide] | 110 | – | 660 | – | 66 | – | – | –
CCc1nc(C(=O)NC[C@]2(O)CC[C@@H](S(C)(=O)=O)C[C@H]2O)c(Cl)n1-c1ncc(CC(C(F)(F)F)C(F)(F)F)cc1OC(F)F (stereo in doubt) [Example 67, 5-Chloro-1-(3-(difluoromethoxy)-5-(3,3,3-trifluoro-2-(trifluoromethyl)propyl)pyridin-2-yl)-N-(((1R*,2R*,4R*)-1,2-dihydroxy-4-(methylsulfonyl)cyclohexyl)methyl)-2-ethyl-1H-imidazole-4-carboxamide] | 53 | 103 | 170 | – | – | – | – | –
CCc1nc(C(=O)NC[C@H]2CC[C@H](S(=O)(=O)N(C)C)CC2)c(Cl)n1-c1ncc(CC(C)(C)C(F)(F)F)cc1OC(F)F [Example 70, 5-Chloro-1-(3-(difluoromethoxy)-5-(3,3,3-trifluoro-2,2-dimethylpropyl)pyridin-2-yl)-N-(((1r,4r)-4-(N,N-dimethylsulfamoyl)cyclohexyl)methyl)-2-ethyl-1H-imidazole-4-carboxamide] | 320 | – | 350 | – | – | – | 88* % | –
CCc1nc(C(=O)NC[C@]2(O)CC[C@@H](S(C)(=O)=O)CC2)c(Cl)n1-c1ccc(CC(C)C)cc1OC (single isomer, unassigned) [Example 92, 5-Chloro-2-ethyl-N-(((1s,4S)-1-hydroxy-4-(methylsulfonyl)cyclohexyl)methyl)-1-((R*)-4-isobutyl-2-methoxyphenyl)-1H-imidazole-4-carboxamide] | 0.28 | – | 7 | – | 72 | – | – | –
CCc1nc(C(=O)NC[C@]2(O)CC[C@@H](S(C)(=O)=O)CC2)c(Cl)n1-c1ccc(CCC(F)(F)F)cc1F [Example 23, 5-Chloro-2-ethyl-1-(2-fluoro-4-(3,3,3-trifluoropropyl)phenyl)-N-(((1s,4s)-1-hydroxy-4-(methylsulfonyl)cyclohexyl)methyl)-1H-imidazole-4-carboxamide] | 49 | – | 37 | – | 41 | – | – | –
CCc1nc(C(=O)NC[C@]2(O)CC[C@@H](S(C)(=O)=O)CC2)c(C#N)n1-c1ncc(CC(C)(C)C(F)(F)F)cc1OC [Example 123, 5-Cyano-2-ethyl-N-(((1s,4s)-1-hydroxy-4-(methylsulfonyl)cyclohexyl)methyl)-1-(3-methoxy-5-(3,3,3-trifluoro-2,2-dimethylpropyl)pyridin-2-yl)-1H-imidazole-4-carboxamide] | 31 | – | 240 | – | 102 | – | – | –
CCc1nc(C(=O)NC[C@H]2CC[C@H](S(C)(=O)=O)CC2)c(Cl)n1-c1ccc(CC(C)C(F)(F)F)cc1OC (single isomer, unassigned) [Example 5, 5-Chloro-2-ethyl-1-((1R*)-2-methoxy-4-(3,3,3-trifluoro-2-methylpropyl)phenyl)-N-(((1r,4R)-4-(methylsulfonyl)cyclohexyl)methyl)-1H-imidazole-4-carboxamide] | 1300 | – | 260 | – | – | – | – | 43**** %
CCc1nc(C(=O)NC[C@H]2CC[C@H](S(C)(=O)=O)CC2)c(C)n1-c1ncc(CC(C)(C)C(F)(F)F)cc1OC [Example 126, 2-Ethyl-1-(3-methoxy-5-(3,3,3-trifluoro-2,2-dimethylpropyl)pyridin-2-yl)-5-methyl-N-(((1r,4r)-4-(methylsulfonyl)cyclohexyl)methyl)-1H-imidazole-4-carboxamide] | 8.6 | – | 76 | – | 100 | – | – | –
CCc1nc(C(=O)NC[C@H]2CC[C@H](S(C)(=O)=O)CC2)c(C#N)n1-c1ccc(CCC(F)(F)F)cc1OC [Example 21, 5-Cyano-2-ethyl-1-(2-methoxy-4-(3,3,3-trifluoropropyl)phenyl)-N-(((1r,4r)-4-(methylsulfonyl)cyclohexyl)methyl)-1H-imidazole-4-carboxamide] | 14 | – | 94 | – | 101 | – | – | –

Second part, led by results:

Kd [1] [nM] | inhibition at 3 µM (full-length human RORγt; [2]) [%] | IC50 (full-length human RORγt) [nM] | inhibition at 2 µM (full-length human RORγt; [3]) [%] | inhibition at 6 µM (full-length human RORγt) [%] | inhibition at 0.67 µM (full-length human RORγt; 0.67 μM compound concentration (****), read-out: RORγt (FL) Reporter Assay A or B, % inhibition) [%] | Compound | RORγt (FL) Reporter Assay A or B, % inhibition (full-length human RORγt; 3 μM compound concentration (*)) | RORγt (FL) Reporter Assay A or B, % inhibition (full-length human RORγt; 0.67 μM compound concentration (****))
1.9 | – | 17 | 89 | – | – | CCc1nc(C(=O)NC[C@]2(O)CC[C@@H](S(C)(=O)=O)CC2)c(C(N)=O)n1-c1ccc(CC(C)(C)C(F)(F)F)cc1OC(F)(F)F [Example 112, 2-Ethyl-N^4-(((1s,4s)-1-hydroxy-4-(methylsulfonyl)cyclohexyl)methyl)-1-(4-(3,3,3-trifluoro-2,2-dimethylpropyl)-2-(trifluoromethoxy)phenyl)-1H-imidazole-4,5-dicarboxamide] | – | –
6.1 | – | 57 | 104 | – | – | COc1cc(N[C@H](C)C(F)(F)F)ccc1-n1c(C(C)(C)C)nc(C(=O)NC[C@H]2CC[C@H](S(C)(=O)=O)CC2)c1Cl [Example 10, 2-(tert-Butyl)-5-chloro-1-(2-methoxy-4-(((R)-1,1,1-trifluoropropan-2-yl)amino)phenyl)-N-(((1r,4R)-4-(methylsulfonyl)cyclohexyl)methyl)-1H-imidazole-4-carboxamide] | – | –
4.6 | – | 40 | 103 | – | – | CCc1nc(C(=O)NC[C@]2(O)CC[C@@H](S(C)(=O)=O)CC2)c(C#N)n1-c1ccc(CC(C)C(F)(F)F)cc1OC (stereo partly drawn) [Example 1, 5-Cyano-2-ethyl-N-(((1s,4s)-1-hydroxy-4-(methylsulfonyl)cyclohexyl)methyl)-1-(2-methoxy-4-(3,3,3-trifluoro-2-methylpropyl)phenyl)-1H-imidazole-4-carboxamide] | – | –
0.42 | – | 7.9 | – | – | 101 | C#Cc1c(C(=O)NC[C@]2(C#N)CC[C@@H](S(C)(=O)=O)CC2)nc(CC)n1-c1ccc(CC(C)(C)C(F)(F)F)cc1OC(F)F [Example 39, N-(((1s*,4s*)-1-Cyano-4-(methylsulfonyl)cyclohexyl)methyl)-1-(2-(difluoromethoxy)-4-(3,3,3-trifluoro-2,2-dimethylpropyl)phenyl)-2-ethyl-5-ethynyl-1H-imidazole-4-carboxamide] | – | –
2.5 | – | 33 | 102 | – | – | [2H]C([2H])([2H])Oc1cc(CC(C)(C)C(F)(F)F)ccc1-n1c(CC)nc(C(=O)NC[C@]2(O)CC[C@@H](S(C)(=O)=O)CC2)c1C#N [Example 28, 5-Cyano-2-ethyl-N-(((1s,4s)-1-hydroxy-4-(methylsulfonyl)cyclohexyl)methyl)-1-(2-(methoxy-d3)-4-(3,3,3-trifluoro-2,2-dimethylpropyl)phenyl)-1H-imidazole-4-carboxamide] | – | –
